In article PMC8767159, “Multiparameter Optimization of Trypanocidal Cruzain Inhibitors With In Vivo Activity and Favorable Pharmacokinetics” (Frontiers in Pharmacology, 2022):

Tests used:
cruzain = molecular target: T1, cruzain (Trypanosoma cruzi, UniProt P25779); test: Cruzain enzyme inhibition assay (cleavage of fluorogenic substrate Z-FR-AMC); format: biochemical; settings: for inhibition at 100 µM: compound 100 µM, mean of three measures
T1 construct: made in house; host or cells: Escherichia coli (strain M15)
Method: Pro-cruzain truncated at the C-terminus was expressed and purified using a previously described protocol ([Ferreira et al., 2019]). Escherichia coli (strain M15) cultures were grown overnight at 37°C and 200 rpm in Luria Bertani (LB) medium supplemented with ampicillin (100 μg/ml) and kanamycin (50 μg/ml). Next, the cultures were diluted 10-fold in fresh LB medium supplemented with 0.5 M NaCl, 0.2% glucose, 1 mM betaine, 0.5 M sorbitol, 100 μg/ml ampicillin, and 50 μg/ml kanamycin and incubated at 37°C and 200 rpm. At an optical density (OD600) of 0.9, the cultures were incubated at 47°C for 20 min to promote the expression of chaperones. Then, the expression of cruzain was induced by adding isopropyl β-D-thiogalactopyranoside (IPTG) to a final concentration of 0.2 mM, which was followed by overnight incubation of the cultures at 20°C and 200 rpm. Next, the cultures were centrifuged (5,000 rpm, 30 min, 4°C), and the cells were suspended in 50 ml of lysis buffer (300 mM NaCl, 50 mM Tris-HCl, and 1.6 mg/ml lysozyme, pH 8.0) per liter of culture and lysed by sonication (12 cycles of 30 s). This cell lysate was centrifuged (9,000 rpm, 30 min, 4°C), and the supernatant was collected. Cruzain was precipitated by incubation with 35% ammonium sulfate (2 h), and this suspension was centrifuged at 9,000 rpm for 30 min at 4°C. The precipitated cruzain was resuspended in lysis buffer, and the sample was dialyzed to eliminate ammonium sulfate. The soluble fraction of the dialysate was loaded on a Ni−NTA column (Qiagen, Hilden, Germany), and the contaminants were washed using washing buffer (300 mM NaCl, 50 mM Tris-HCl, and 10 mM imidazole, pH 8.0). Cruzain was eluted by applying an increasing imidazole gradient: 25, 50, 75, 100, and 250 mM. The fractions containing cruzain were pooled together and dialyzed against 1.5 L of 0.1 M acetate buffer, pH 5.5, and then concentrated to 0.5 mg/ml. Pro-cruzain was activated by incubation with activation buffer (100 mM sodium acetate, pH 5.5, 10 mM EDTA, 5 mM DTT, and 1 M NaCl) at 37°C. […] After activation, the enzyme was diluted 20-fold in binding buffer (20 mM sodium phosphate and 150 mM NaCl, pH 7.2) and added to thiopropyl Sepharose 6B resin (GE Healthcare Life Sciences, Pittsburgh, PA). After overnight incubation at 4°C, the resin was loaded on a column, and cruzain was eluted with binding buffer supplemented with 20 mM DTT. Fractions containing cruzain were pooled together and stored in 0.1 M sodium acetate, pH 5.5, at −80°C.
Cruzain activity was followed by monitoring the cleavage of the fluorogenic substrate Z-Phe-Arg-aminomethyl coumarin (Z-FR-AMC), as previously described ([Ferreira et al., 2019]), using 96-well flat-bottom black plates and wavelengths of 355 nm for excitation and 460 nm for emission. All cruzain assays were performed in 0.1 M sodium acetate buffer with 5 mM dithiothreitol (DTT) and 0.01% Triton X-100, pH 5.5. […] The cleavage of the substrate was monitored for 5 min, and the activity was calculated based on the initial reaction rates compared with the rate of a DMSO control at 30°C. The IC50 values were independently calculated by considering the rate measurements for at least six inhibitor concentrations, each evaluated in triplicate. To determine the mechanism of cruzain inhibition, eight concentrations of the substrate Z-FR-AMC and four concentrations of the inhibitor were employed, each in triplicate. Kinetic parameters were determined using the SigmaPlot (Systat Software Inc., Erkrath, Germany) enzyme kinetics module. Compounds were tested in two or three independent experiments. All enzyme assays were performed using varying Triton X-100 concentrations (0, 0.01, and 0.1%) ([Ferreira et al., 2009]). Compound concentrations were 100 μM in the single-dose percentage inhibition assays.

[1] = In vitro metabolic stability in mouse liver microsomes; format: in vitro ADME; settings: for CLint (L/h/kg) Mouse: Table S5; for CLint_u (L/h/kg) Mouse: Table S5, CLint/fu
Method: (§1) Isolated mouse (BD Gentest, Bedford, MA) and human liver microsomes (XenoTech, Kansas City, KS) ([Plant, 2004]) were added at a final concentration of 0.25 mg/ml to a solution containing 40 mM dibasic potassium phosphate and 10 mM monobasic potassium phosphate. Stock solutions of compounds at 5 mM were prepared in 100% DMSO. A 50:50 quenching solution of acetonitrile (ACN) and methanol (MeOH) was prepared. An NADPH solution was prepared at 10 mM. The preparations containing the microsomes were added to each well of the incubation plate (450 µl), which was then heated to 37°C for 10 min. The compounds were added to the respective wells of the test plate (2 µl). Then, 300 µl of the microsome preparation was added to each well of the test plate. The test plate was heated under gentle rotation for 5 min at 37°C. Next, 90 µl of the mixture contained in the test plate was added to the incubation plate, making a final volume of 540 µl. Samples were collected at the following incubation times: 0, 5, 10, 15, 20, and 30 min. To the 0 min sample plate, quenching solution (180 µl), NADPH (6 µl), and the incubation plate mixture (54 µl) were added to each well. The sample plate was then sealed, homogenized, and stored at 4°C. Then, 54 µl of the NADPH solution was added to the incubation plate, which was homogenized. Before the collection of each sample at the established times, 45 µl of the quenching solution was added to each well of the corresponding sample plates. After reaching the incubation times, 60 µl of the mixture contained in the incubation plate was added to the corresponding sample plates. The sample plates were then sealed and stored at 4°C. After the collection of the last sample (30 min), all sample plates were centrifuged at 3,800 rpm for 30 min. The supernatant from each well was collected and transferred to clean plates for mass spectrometry. Five to 10 µl of each sample was injected into an AB Sciex Triple Quad 5500 LC-MS/MS instrument.
(§2) For the biotransformation experiments and analysis of metabolites in microsomes, an Ultra-High-Pressure Liquid Chromatography instrument (UHPLC, Thermo Accela, Waltham, MA) ([Spaggiari et al., 2014]) connected to an automatic sample injector and a 1250 series pump was used. The UHPLC system was connected to a Thermo Fisher (Waltham, MA) LTQ Orbitrap mass spectrometer. For all other analyses, an AB Sciex Triple Quad 5500 coupled to a UHPLC equipped with a UV 1290 diode detector (Agilent Technologies, Santa Clara, CA) and a CTC PAL self-collecting system (LEAP Technologies, Carrboro, NC) was used. Q1 MS positive ion mode (300–500 Da) was used to detect the ions of the parent compounds. The UV detector was operated in spectral mode (250–280 nm). A Hypersil Gold C18 (2.1 mm × 100 mm, 1.9 µm, Thermo Fisher) HPLC column was used. The mobile phases were solvent A (0.1% formic acid in water) and solvent B (0.1% formic acid in ACN). The flow was adjusted to 0.55 ml/min, and the injection volume was adjusted to […]. The gradient started with 1% solvent B for 0.4 min, reached 40% (solvent B) in 2.3 min and 95% (solvent B) in 0.67 min, was maintained for 0.5 min, and returned to the initial condition of 1%. This condition was maintained for 1 min before injection of the next sample. The peak area ratio (peak area of the test compounds/peak area of the control compounds) was converted to the percentage of remaining compound, with the 0 min time point ratio set to 100%. T½ and CLint were calculated from the percentage of remaining compound versus the incubation time. From the resulting function, the slope (k) was determined. The equations T1/2 (min) = ln(2)/k and CLint in vitro (μL/min/mg) = k*1000/0.25 were used to determine T½ and CLint.

[2] = Fraction unbound by equilibrium dialysis; format: in vitro ADME; settings: Table S5; fraction unbound
Method: The fraction unbound (fu) ([Masimirembwa et al., 2003]) of the test compounds was determined after incubation with different media, namely, plasma, microsomes, and buffer with 10% FCS. Equilibrium dialysis was performed in a 96-well plate (HT-Dialysis, Gales Ferry, CT) in which each well was divided by a semipermeable membrane (12–14 kDa cutoff). The test compounds diluted in either plasma, microsome suspension, or buffer were added to one side of the membrane. Potassium phosphate buffer (50 mM, pH 7.4) was added to the other side of the membrane. A standard curve was used to calculate the compound concentration (fu) on each side of the membrane. Stock solutions of each compound were prepared in 100% DMSO to obtain a final concentration of 1 mM. The following compound concentrations were used: 1, 2, 20, 200, 2,000 and 5,000 nM. To 500 μl of medium, 0.5 μl of the compound stock solution was added, and this was applied to one side of the well. Each compound was evaluated in triplicate. Next, the plate was assembled, sealed, and incubated at 37°C under rotation (150 rpm) for 4 h. After the incubation period, the plates were subjected to LC-MS/MS.

[3] = In vitro metabolic stability in human liver microsomes; format: in vitro ADME; settings: for CLint (L/h/kg) Human: Table S5; for CLint_u (L/h/kg) Human: Table S5, CLint/fu
Method: as §1, §2

T1 sequence (P25779 123-337 limits assumed): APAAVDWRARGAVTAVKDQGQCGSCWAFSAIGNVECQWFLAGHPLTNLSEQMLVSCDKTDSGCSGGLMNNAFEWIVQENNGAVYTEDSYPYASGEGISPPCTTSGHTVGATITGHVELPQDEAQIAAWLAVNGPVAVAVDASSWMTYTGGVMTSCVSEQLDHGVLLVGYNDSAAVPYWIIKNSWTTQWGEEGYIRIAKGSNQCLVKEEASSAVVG

| Compound | IC50 (cruzain; 1.5 nM cruzain, 5.0 µM Z-FR-AMC, mean ± SD of 2–3 assays, read-out: IC50 (µM) against cruzain) | inhibition at 100 µM (cruzain) | CLint (L/h/kg) Mouse [1] | CLint_u (L/h/kg) Mouse [1] | fu [2] | CLint (L/h/kg) Human [3] | CLint_u (L/h/kg) Human [3] |
| --- | --- | --- | --- | --- | --- | --- | --- |
| COC(=O)c1cccc2cc(OCC(=O)NCCc3nc4ccccc4[nH]3)ccc12 [Compound 14] | 8.3 ± 2.1 µM | 92% |  |  |  |  |  |
| O=C(COc1ccccc1Cl)NCCc1nc2ccccc2[nH]1 [Compound 40] |  |  |  | 419.09 L/h/kg | 0.86 | 19.50 L/h/kg | 22.70 L/h/kg |
| O=C(COc1ccccc1I)NCCc1nc2ccccc2[nH]1 [Compound 41] |  |  | 683.00 L/h/kg | 1,082.41 L/h/kg | 0.63 | 39.40 L/h/kg | 62.44 L/h/kg |
| CC(=O)Nc1ccccc1OCC(=O)NCCc1nc2ccccc2[nH]1 [Compound 43] |  |  | 10.30 L/h/kg | 10.30 L/h/kg | 1.00 | 3.94 L/h/kg | 3.94 L/h/kg |
| O=C(COc1cccc2ccccc12)NCCc1nc2ccccc2[nH]1 [Compound 44] |  |  | 504.00 L/h/kg | 1,495.55 L/h/kg | 0.34 | 23.80 L/h/kg | 70.62 L/h/kg |
| O=C(COc1ccc2ccccc2c1O)NCCc1nc2ccccc2[nH]1 [Compound 47] |  |  | 655.00 L/h/kg | 939.71 L/h/kg | 0.72 |  | 35.00 L/h/kg |
| O=C(CCOc1ccccc1)NCCc1nc2ccccc2[nH]1 [Compound 49] |  |  | 86.20 L/h/kg | 86.20 L/h/kg | 1.00 | 3.28 L/h/kg | 3.28 L/h/kg |
| Cc1ccccc1OCC(=O)NCCc1c[nH]c2ccccc12 [Compound 50] |  |  | 790.00 L/h/kg | 1,292.96 L/h/kg | 0.61 | 23.60 L/h/kg | 38.63 L/h/kg |
| O=C(COc1ccc2ccccc2c1Br)NCCc1nc2cc(Cl)ccc2[nH]1 [Compound 52] |  |  | 407.00 L/h/kg |  | 0.02 | 41.60 L/h/kg | 2,122.45 L/h/kg |

Further lines, results first:

| IC50 (cruzain; 1.5 nM cruzain, 5.0 µM Z-FR-AMC, mean ± SD of 2–3 assays, read-out: IC50 (µM) against cruzain) | inhibition at 100 µM (cruzain) | CLint (L/h/kg) Mouse [1] | CLint_u (L/h/kg) Mouse [1] | fu [2] | CLint (L/h/kg) Human [3] | CLint_u (L/h/kg) Human [3] | Compound |
| --- | --- | --- | --- | --- | --- | --- | --- |
|  | 62% |  |  |  |  |  | COc1cc(OCC(=O)NCCc2nc3ccccc3[nH]2)ccc1[N+](=O)[O-] [Compound 16] |
|  |  | 125.00 L/h/kg | 132.56 L/h/kg | 0.94 | 7.03 L/h/kg | 7.45 L/h/kg | O=C(COc1ccccc1F)NCCc1nc2ccccc2[nH]1 [Compound 39] |
|  |  | 24.80 L/h/kg | 29.45 L/h/kg | 0.84 | 3.91 L/h/kg | 4.64 L/h/kg | Nc1ccccc1OCC(=O)NCCc1nc2ccccc2[nH]1 [Compound 42] |
|  |  | 669.00 L/h/kg | 1,276.72 L/h/kg | 0.52 | 37.30 L/h/kg | 71.18 L/h/kg | O=Cc1c(OCC(=O)NCCc2nc3ccccc3[nH]2)ccc2ccccc12 [Compound 45] |
|  |  | 757.00 L/h/kg | 981.84 L/h/kg | 0.77 | 24.70 L/h/kg | 32.04 L/h/kg | O=C(COc1ccc2ccccc2c1CO)NCCc1nc2ccccc2[nH]1 [Compound 46] |
|  |  | 234.00 L/h/kg | 293.60 L/h/kg | 0.80 | 9.07 L/h/kg | 11.38 L/h/kg | O=C(CSc1ccccc1)NCCc1nc2ccccc2[nH]1 [Compound 48] |
|  |  | 618.00 L/h/kg | 1,144.44 L/h/kg | 0.54 | 35.40 L/h/kg | 65.56 L/h/kg | O=C(COc1ccc2ccccc2c1)NCCc1nc2ccccc2o1 [Compound 51] |
